Where two headings read alike, the source gives them in different places.
What was measured:
[1] = test system: M. luteus EN0455; experiment: MIC; assay type: cell-based, Micrococcus luteus; details: Micrococcus luteus, read-out: MIC
[2] = test system: A. pittii or A. nosocomialis EN0180; experiment: MIC; assay type: cell-based, Acinetobacter pittii or nosocomialis; details: read-out: MIC
[3] = test system: P. aeruginosa EN014; experiment: MIC, WT; assay type: cell-based, Pseudomonas aeruginosa; details: Pseudomonas aeruginosa, read-out: MIC
[4] = test system: K. pneumoniae EN0144; experiment: MIC, MBL (VIM-1); assay type: cell-based; details: Klebsiella pneumoniae, read-out: MIC
[5] = test system: K. pneumoniae EN0244; experiment: MIC, colistinR; assay type: cell-based; details: Klebsiella pneumoniae, read-out: MIC
[6] = test system: P. mirabilis EN0457; experiment: MIC; assay type: cell-based, Proteus mirabilis; details: Proteus mirabilis, read-out: MIC
[7] = test system: S. marescens EN0454; experiment: MIC; assay type: cell-based, Serratia marescens; details: Serratia, read-out: MIC
[8] = test system: K. pneumoniae EN0463; experiment: MIC; assay type: cell-based, Klebsiella pneumoniae; details: Klebsiella pneumoniae, read-out: MIC
[9] = test system: E. coli EN0235; experiment: microbe, parasite or virus in culture; assay type: cell-based; details: Escherichia coli
[10] = test system: P. aeruginosa EN0460; experiment: MIC; assay type: cell-based, Pseudomonas aeruginosa; details: Pseudomonas aeruginosa, read-out: MIC
[11] = test system: E. coli EN003; experiment: microbe, parasite or virus in culture; assay type: cell-based, Escherichia coli; details: Escherichia coli, EN003, combination didanosine+trimethoprim+uridine, Table 10
[12] = test system: P. aeruginosa EN004; experiment: MIC, WT (EN004 = EN0004); assay type: cell-based, Pseudomonas aeruginosa
[13] = test system: E. coli EN002; experiment: MIC, DtoIC; assay type: cell-based, Escherichia coli; details: Escherichia coli, read-out: MIC
[14] = test system: Citrobacter sp. EN0465; experiment: MIC; assay type: cell-based; details: Citrobacter, read-out: MIC
[15] = test system: P. aeruginosa EN0422; experiment: MIC; assay type: cell-based, Pseudomonas aeruginosa; details: Pseudomonas aeruginosa, read-out: MIC

COc1cc(Cc2cnc(N)nc2N)cc(OC)c1OC [Trimethoprim, trimethoprim]
MIC ([1]; EN0455, Combination 1 AZT+trimethoprim+uridine, Table 16): 2 µg/mL | MIC ([1]; EN0455, Combination 2 AZT+trimethoprim+uridine+thymidine, Table 16): > 4 µg/mL | MIC ([1]; EN0455, combination AZT+trimethoprim+uridine, Table 6): 2 µg/mL | MIC ([1]; EN0455, combination FdUrd+trimethoprim+uridine, Table 8): 4 µg/mL | MIC ([1]; EN0455, combination didanosine+trimethoprim+uridine, Table 10): 4 µg/mL | MIC ([2]; Combination 1 AZT+trimethoprim+uridine, Table 16): > 4 µg/mL | MIC ([2]; Combination 2 AZT+trimethoprim+uridine+thymidine, Table 16): > 4 µg/mL | MIC ([2]; combination AZT+trimethoprim+uridine, Table 6): > 4 µg/mL | MIC ([2]; combination FdUrd+trimethoprim+uridine, Table 8): 8 µg/mL | MIC ([2]; combination didanosine+trimethoprim+uridine, Table 10): > 8 µg/mL | MIC ([3]; EN014, Combination 1 AZT+trimethoprim+uridine, Table 16): > 4 µg/mL | MIC ([3]; EN014, Combination 2 AZT+trimethoprim+uridine+thymidine, Table 16): > 4 µg/mL | MIC ([3]; EN014, combination AZT+trimethoprim+uridine, Table 6): > 4 µg/mL | MIC ([3]; EN014, combination FdUrd+trimethoprim+uridine, Table 8): > 8 µg/mL | MIC ([3]; EN014, combination didanosine+trimethoprim+uridine, Table 10): > 8 µg/mL | MIC ([4]; EN0144, combination AZT+trimethoprim+uridine, Table 17B): 1 µg/mL | MIC ([4]; EN0144, combination FdUrd+trimethoprim+uridine, Table 19): > 8 µg/mL | MIC ([4]; EN0144, combination didanosine+trimethoprim+uridine, Table 20): > 8 µg/mL | MIC ([5]; EN0244, combination AZT+trimethoprim+uridine, Table 17B): 0.5 µg/mL | MIC ([5]; EN0244, combination FdUrd+trimethoprim+uridine, Table 19): > 8 µg/mL | MIC ([5]; EN0244, combination didanosine+trimethoprim+uridine, Table 20): > 8 µg/mL | MIC ([6]; EN0457, Combination 1 AZT+trimethoprim+uridine, Table 16): 2 µg/mL | MIC ([6]; EN0457, Combination 2 AZT+trimethoprim+uridine+thymidine, Table 16): > 4 µg/mL | MIC ([6]; EN0457, combination AZT+trimethoprim+uridine, Table 6): 2 µg/mL | MIC ([6]; EN0457, combination FdUrd+trimethoprim+uridine, Table 8): 2 µg/mL | MIC ([6]; EN0457, combination didanosine+trimethoprim+uridine, Table 10): 4 µg/mL | MIC ([7]; EN0454, Combination 1 AZT+trimethoprim+uridine, Table 16): > 4 µg/mL | MIC ([7]; EN0454, Combination 2 AZT+trimethoprim+uridine+thymidine, Table 16): > 4 µg/mL | MIC ([7]; EN0454, combination AZT+trimethoprim+uridine, Table 6): 1 µg/mL | MIC ([7]; EN0454, combination FdUrd+trimethoprim+uridine, Table 8): > 8 µg/mL | MIC ([7]; EN0454, combination didanosine+trimethoprim+uridine, Table 10): > 8 µg/mL | MIC ([8]; EN0463, combination AZT+trimethoprim+uridine, Table 6): 0.06 µg/mL | MIC ([8]; EN0463, combination FdUrd+trimethoprim+uridine, Table 8): 0.5 µg/mL | MIC ([8]; EN0463, combination didanosine+trimethoprim+uridine, Table 10): 0.5 µg/mL | MIC ([9]; EN0235, combination FdUrd+trimethoprim+uridine, Table 19): 0.125 µg/mL | MIC ([9]; EN0235, combination didanosine+trimethoprim+uridine, Table 20): 0.25 µg/mL | MIC ([10]; EN0460, Combination 1 AZT+trimethoprim+uridine, Table 16): > 4 µg/mL | MIC ([10]; EN0460, Combination 2 AZT+trimethoprim+uridine+thymidine, Table 16): > 4 µg/mL | MIC ([10]; EN0460, combination AZT+trimethoprim+uridine, Table 6): > 4 µg/mL | MIC ([10]; EN0460, combination FdUrd+trimethoprim+uridine, Table 8): > 8 µg/mL | MIC ([10]; EN0460, combination didanosine+trimethoprim+uridine, Table 10): > 8 µg/mL | MIC [11]: 0.064 µg/mL | MIC ([12]; Pseudomonas aeruginosa, EN004, Combination 1 AZT+trimethoprim+uridine, Table 16, read-out: MIC): > 4 µg/mL | MIC ([12]; Pseudomonas aeruginosa, EN004, Combination 2 AZT+trimethoprim+uridine+thymidine, Table 16, read-out: MIC): > 4 µg/mL | MIC ([12]; Pseudomonas aeruginosa, EN004, combination AZT+trimethoprim+uridine, Table 6, read-out: MIC): > 4 µg/mL | MIC ([12]; Pseudomonas aeruginosa, EN004, combination FdUrd+trimethoprim+uridine, Table 8, read-out: MIC): > 8 µg/mL | MIC ([12]; Pseudomonas aeruginosa, EN004, combination didanosine+trimethoprim+uridine, Table 10, read-out: MIC): > 8 µg/mL | MIC ([12]; combination AZT+trimethoprim+uridine, Table 17B): >4 µg/mL | MIC ([12]; combination FdUrd+trimethoprim+uridine, Table 19): >8 µg/mL | MIC ([12]; combination didanosine+trimethoprim+uridine, Table 20): >8 µg/mL | MIC ([13]; EN002, Combination 1 AZT+trimethoprim+uridine, Table 16): 0.016 µg/mL | MIC ([13]; EN002, combination AZT+trimethoprim+uridine, Table 6): 0.016 µg/mL | MIC ([13]; EN002, combination FdUrd+trimethoprim+uridine, Table 8): 0.064 µg/mL | MIC ([13]; EN002, combination didanosine+trimethoprim+uridine, Table 10): 0.064 µg/mL | MIC ([14]; SP.EN0465, Combination 1 AZT+trimethoprim+uridine, Table 16): > 4 µg/mL | MIC ([14]; SP.EN0465, Combination 2 AZT+trimethoprim+uridine+thymidine, Table 16): > 4 µg/mL | MIC ([14]; SP.EN0465, combination AZT+trimethoprim+uridine, Table 6): > 4 µg/mL | MIC ([14]; SP.EN0465, combination FdUrd+trimethoprim+uridine, Table 8): > 8 µg/mL | MIC ([14]; SP.EN0465, combination didanosine+trimethoprim+uridine, Table 10): > 8 µg/mL | MIC ([15]; EN0422, Combination 1 AZT+trimethoprim+uridine, Table 16): > 8 µg/mL | MIC ([15]; EN0422, Combination 2 AZT+trimethoprim+uridine+thymidine, Table 16): > 4 µg/mL | MIC ([15]; EN0422, combination AZT+trimethoprim+uridine, Table 6): > 4 µg/mL | MIC ([15]; EN0422, combination FdUrd+trimethoprim+uridine, Table 8): > 8 µg/mL | MIC ([15]; EN0422, combination didanosine+trimethoprim+uridine, Table 10): > 8 µg/mL

— patent publication US10828317B2, “Method of treating bacterial infections” (priority 2016, dated 2020)
